Assay results from patent US7226939B2, “Thienopyridine analogues with antifungal activity and process thereof” (priority 2002, dated 2007).

System: C. albicans
Experiment: In vitro antifungal susceptibility testing (MIC), soyabean casein digest broth
Assay type: cell-based
Conditions: Candida albicans, reference standard, end points after 48 hours, read-out: minimum inhibitory concentration
Description: In vitro evaluation of antifungal activity can be performed by determining the minimum inhibitory concentration.
Anti-fungal susceptibility testing of these anti-fungal compounds was done by conventional method using soyabean casein digest broth. Known anti-fungal agents like Fluconazole and amphotericin-B were used as positive Control. End points were determined after 48 hours visually and by using Spectrophotometer wherever necessary. Different dilutions were tried and the set of experiments where repeated to confirm the end points. Standard cultures of Candida, Aspergillus and Fusarium were used for screening of these drugs.
Substituents and In-Vitro Anti-Fungal Activity (C. albicans) of the Compounds Expressed as MIC* (μg/ml). Reference Standard (RS) Fluconazole.

## OC(Cn1cncn1)(Cn1cncn1)c1ccc(F)cc1F [Fluconazole]
  MIC: < 3.12 µg/mL
